Laboratory results from PMC5641330, “Prediction of a Therapeutic Dose for Buagafuran, a Potent Anxiolytic Agent by Physiologically Based Pharmacokinetic/Pharmacodynamic Modeling Starting from Pharmacokinetics in Rats and Human” (Frontiers in Pharmacology, 2017).

Experiment: Brain concentrations in the rat after oral dosing (observed)
Type: in vivo, male Wistar rats
Settings: oral 4 mg/kg
Source text: Animal Care and Welfare Committee of Institute of Materia Medica, Chinese Academy of Medical Sciences approved all animal protocols (1 Xian nong tan Street, Xicheng District, Beijing, China; Permission Number: SYXK 2014-0023, Expiration: 06 Aug, 2019). All animal programs are in compliance with the Guide for the Care and Use of Laboratory Animals issued by Beijing Association on Laboratory Animal Care (BALAC). Buagafuran formulation of PVP was suspended in deionized water and was orally administered at 4 or 8 mg/kg to male Wistar rats (weighing 180–200 g). Brain samples treated with the dose of 4 mg/kg and blood samples of both treatments were collected over 3 h. Plasma samples were obtained by centrifugation, and brain tissues were homogenized in a threefold volume (w/v) of saline. Buagafuran concentrations in plasma and brain samples were quantitated by an LC-MS/MS method ([Yang et al., 2011]).
A volume of 200 μL plasma or tissue homogenate was mixed with 100 μL IS (10 ng/mL) followed by addition of 2 mL hexane. After vortexing for 2 min, the mixture was centrifuged for 5 min at 3000 g. The extracted solution was combined and evaporated to dryness at 25°C. […] The outlet of the column was detected in positive ionization electrospray mode with selected reaction monitoring. The monitored transitions of buagafuran and IS were m/z 245→105 and 500→142, respectively. […]

In the case of `CCCCC1=CCC[C@@]2(C)CC[C@@H]3C[C@]12OC3(C)C` [buagafuran], the Tmax (male, Wistar, brain, read-out: time of maximum concentrations in brain) is reported as 15 to 30 min and the “time at which brain concentrations were detected” value is reported as 5 min.
